The term inhibition denotes the drop in the measured response relative to a control, in per cent. A lower inhibition goes with a response near the control. As usually defined, the IC50 is the concentration needed to halve the response being measured. Higher therefore signals lower potency.

Here are results for 32 compounds from paper PMC6864537, “Novel Thiazolidin-4-ones as Potential Non-Nucleoside Inhibitors of HIV-1 Reverse Transcriptase” (Molecules, 2019).

Molecules are shown by their SMILES. Where only a bound is given, the exact number is not on record here.

The test has as its target T1, HIV-1 Reverse Transcriptase (Human immunodeficiency virus type 1 group M subtype B, UniProt P03366).
T1 construct: Lys101, Val179 (p66 subunit) and Glu138 (p51 subunit); purchased Roche
Kind of test: HIV-1 RT inhibitory action, colorimetric photometric immunoassay kit (Roche). Format: biochemical. The note with it: for IC50: IC50 (μM), 45 min pre-incubation, 2 h at 37 °C. The method, then: For the evaluation of the HIV-1 Reverse Transcriptase activity, the colorimetric photometric immunoassay kit provided by Roche was used. A two hours incubation at 37 °C was performed, as previously described in our paper following a pre-incubation step in which reverse transcriptase was incubated in the presence of the potential inhibitor for 45 min at room temperature before the addition of the substrate. The total-activity was measured in the absence of inhibitors (compounds) with the addition of an equal volume of the solvent of the compounds to the reaction mixture. For the determination of enzyme activity, incubation in the absence of enzyme was used as blank. Different inhibitor concentrations were added for the calculation of IC50 values.

As for `O=C1CSC(c2c(F)cccc2F)N1c1nc2cccc(Cl)c2s1` (stereo not shown) [Compound 1, 3-(7-Chloro-benzo[d]thiazol-2-yl)-2-(2,6-difluorophenyl)thiazolidin-4-one], the inhibition at 4 µM amounted to 70% and the 50% inhibitory concentration (IC50) was found to be 0.21 µM.
The matching figures for `O=C1CSC(c2c(F)cccc2Cl)N1c1nc2cccc(Cl)c2s1` (stereo not shown) [Compound 2, 3-(7-Chloro-benzo[d]thiazol-2-yl)-2-(2-chloro-6-fluorophenyl)thiazolidin-4-one]: 72% and 0.0047 µM.
Regarding `O=C1CSC(c2ccc(F)cc2)N1c1nc2ccc(F)cc2s1` (stereo not shown) [Compound 3, 3-(6-Fluoro-benzo[d]thiazol-2-yl)-2-(4-fluorophenyl)thiazolidin-4-one], the inhibition at 4 µM came out at 72% and inhibition was half-maximal at 0.15 µM (IC50).
On the same counts, the results for `O=C1CSC(c2ccc([N+](=O)[O-])cc2)N1c1nc2ccc(F)cc2s1` (stereo not shown) [Compound 4, 3-(6-Fluoro-benzo[d]thiazol-2-yl)-2-(4-nitrophenyl)thiazolidin-4-one] are 54% and 3.8 µM.
In turn, `O=C1CSC(c2ccc(Cl)cc2)N1c1nc2ccc(F)cc2s1` (stereo not shown) [Compound 5, 3-(6-Fluoro-benzo[d]thiazol-2-yl)-2-(4-chlorophenyl)thiazolidin-4-one] yielded an inhibition at 4 µM of 44% and an IC50 of over 4 µM.
`COc1ccc(C2SCC(=O)N2c2nc3ccc(F)cc3s2)cc1` (stereo not shown) [Compound 6, 3-(6-Fluoro-benzo[d]thiazol-2-yl)-2-(4-methoxyphenyl)thiazolidin-4-one] yielded an inhibition at 4 µM of 35% and an IC50 of over 4 µM.
On the same counts, the results for `O=C1CSC(c2ccc(O)cc2)N1c1nc2ccc(F)cc2s1` (stereo not shown) [Compound 7, 3-(6-Fluoro-benzo[d]thiazol-2-yl)-2-(4-hydroxyphenyl)thiazolidin-4-one] are 50% and 4 µM.
The compound `O=C1CSC(c2ccc(F)cc2)N1c1nc2ccc(Cl)cc2s1` (stereo not shown) [Compound 8, 3-(6-Chloro-benzo[d]thiazol-2-yl)-2-(4-fluorophenyl)thiazolidin-4-one] gave an inhibition at 4 µM of 83% and an IC50 of 0.26 µM.
The matching figures for `O=C1CSC(c2ccc(O)cc2)N1c1nc2ccc(Cl)cc2s1` (stereo not shown) [Compound 9, 3-(6-Chloro-benzo[d]thiazol-2-yl)-2-(4-hydroxyphenyl)thiazolidin-4-one]: 56% and 0.001 µM.
`O=C1CSC(c2ccc(F)cc2)N1c1nc2c(Cl)cccc2s1` (stereo not shown) [Compound 10, 3-(4-Chloro-benzo[d]thiazol-2-yl)-2-(4-fluorophenyl)thiazolidin-4-one] displayed an inhibition at 4 µM of 63% and an IC50 of 0.001 µM.
Turning to `O=C1CSC(c2ccc([N+](=O)[O-])cc2)N1c1nc2c(Cl)cccc2s1` (stereo not shown) [Compound 11, 3-(4-Chloro-benzo[d]thiazol-2-yl)-2-(4-nitrophenyl)thiazolidin-4-one], the inhibition at 4 µM stood at 40% and the IC50 was over 4 µM.
`O=C1CSC(c2ccc(Cl)cc2)N1c1nc2c(Cl)cccc2s1` (stereo not shown) [Compound 12, 3-(4-Chloro-benzo[d]thiazol-2-yl)-2-(4-chlorophenyl)thiazolidin-4-one] returned an inhibition at 4 µM of 50% and an IC50 of 4 µM.
As for `COc1ccc(C2SCC(=O)N2c2nc3c(Cl)cccc3s2)cc1` (stereo not shown) [Compound 13, 3-(4-Chloro-benzo[d]thiazol-2-yl)-2-(4-methoxyphenyl)thiazolidin-4-one], at 4 µM the inhibition was 65% and the IC50 was found to be 1.99 µM.
On the same counts, the results for `O=C1CSC(c2ccc(O)cc2)N1c1nc2c(Cl)cccc2s1` (stereo not shown) [Compound 14, 3-(4-Chloro-benzo[d]thiazol-2-yl)-2-(4-hydroxyphenyl)thiazolidin-4-one] are 83% and 0.01 µM.
On the same counts, the results for `COc1cccc2sc(N3C(=O)CSC3c3ccc(F)cc3)nc12` (stereo not shown) [Compound 15, 3-(4-Methoxy-benzo[d]thiazol-2-yl)-2-(4-flurophenyl)thiazolidin-4-one] are 69% and 2.08 µM.
On the same counts, the results for `COc1cccc2sc(N3C(=O)CSC3c3ccc([N+](=O)[O-])cc3)nc12` (stereo not shown) [Compound 16, 3-(4-Methoxy-benzo[d]thiazol-2-yl)-2-(4-nitrophenyl)thiazolidin-4-one] are 68% and 2.2 µM.
`COc1cccc2sc(N3C(=O)CSC3c3ccc(Cl)cc3)nc12` (stereo not shown) [Compound 17, 3-(4-Methoxy-benzo[d]thiazol-2-yl)-2-(4-chlorophenyl)thiazolidin-4-one] returned an inhibition at 4 µM of 67% and an IC50 of 2.6 µM.
For `COc1ccc(C2SCC(=O)N2c2nc3c(OC)cccc3s2)cc1` (stereo not shown) [Compound 18, 3-(4-Methoxy-benzo[d]thiazol-2-yl)-2-(4-methoxyphenyl)thiazolidin-4-one], the inhibition at 4 µM was 72% and 2.69 µM corresponded to half-maximal inhibition (IC50).
`COc1cccc2sc(N3C(=O)CSC3c3ccc(O)cc3)nc12` (stereo not shown) [Compound 19, 3-(4-Methoxy-benzo[d]thiazol-2-yl)-2-(4-hydroxyphenyl)thiazolidin-4-one] returned an inhibition at 4 µM of 71% and a 50% inhibitory concentration (IC50) of 2.62 µM.
As to `COc1ccc2nc(N3C(=O)CSC3c3ccc(F)cc3)sc2c1` (stereo not shown) [Compound 20, 3-(6-Methoxy-benzo[d]thiazol-2-yl)-2-(4-fluorophenyl)thiazolidin-4-one], the inhibition at 4 µM is 55% and the IC50 turned out to be 1.51 µM.
In turn, `COc1ccc2nc(N3C(=O)CSC3c3ccc([N+](=O)[O-])cc3)sc2c1` (stereo not shown) [Compound 21, 3-(6-Methoxy-benzo[d]thiazol-2-yl)-2-(4-nitrophenyl)thiazolidin-4-one] gave an inhibition at 4 µM of 50% and an IC50 of 4 µM.
On the same counts, the results for `COc1ccc2nc(N3C(=O)CSC3c3ccc(Cl)cc3)sc2c1` (stereo not shown) [Compound 22, 3-(6-Methoxy-benzo[d]thiazol-2-yl)-2-(4-chlorophenyl)thiazolidin-4-one] are 72% and 2.76 µM.
With `COc1ccc(C2SCC(=O)N2c2nc3ccc(OC)cc3s2)cc1` (stereo not shown) [Compound 23, 3-(6-Methoxy-benzo[d]thiazol-2-yl)-2-(4-methoxyphenyl)thiazolidin-4-one], 4 µM produced 73% inhibition and the IC50 was 2.39 µM.
The matching figures for `CCOc1ccc2nc(N3C(=O)CSC3c3ccc(F)cc3)sc2c1` (stereo not shown) [Compound 24, 3-(6-Ethoxy-benzo[d]thiazol-2-yl)-2-(4-fluorophenyl)thiazolidin-4-one]: 36% and over 4 µM.
The matching figures for `CCOc1ccc2nc(N3C(=O)CSC3c3ccc([N+](=O)[O-])cc3)sc2c1` (stereo not shown) [Compound 25, 3-(6-Ethoxy-benzo[d]thiazol-2-yl)-2-(4-nitrophenyl)thiazolidin-4-one]: 44% and over 4 µM.
On the same counts, the results for `CCOc1ccc2nc(N3C(=O)CSC3c3ccc(Cl)cc3)sc2c1` (stereo not shown) [Compound 26, 3-(6-Ethoxy-benzo[d]thiazol-2-yl)-2-(4-chlorophenyl)thiazolidin-4-one] are 73% and 2.48 µM.
Compound `CCOc1ccc2nc(N3C(=O)CSC3c3ccc(OC)cc3)sc2c1` (stereo not shown) [Compound 27, 3-(6-Ethoxy-benzo[d]thiazol-2-yl)-2-(4-methoxyphenyl)thiazolidin-4-one] showed an inhibition at 4 µM of 76% and an IC50 of 1.93 µM.
In turn, `CCOc1ccc2nc(N3C(=O)CSC3c3ccc(O)cc3)sc2c1` (stereo not shown) [Compound 28, 3-(6-Ethoxy-benzo[d]thiazol-2-yl)-2-(4-hydroxyphenyl)thiazolidin-4-one] had an inhibition at 4 µM of 62% and an IC50 of 2 µM.
With `O=C1CSC(c2c(Cl)cccc2Cl)N1c1nc2ccc(OC(F)(F)F)cc2s1` (stereo not shown) [Compound 29, 3-(6-Trifluoromethoxy-benzo[d]thiazol-2-yl)-2-(2,6-dichlorophenyl) thiazolidin-4-one], at 4 µM the inhibition was 49% and inhibition was half-maximal at 4.28 µM (IC50).
`O=C1CSC(c2cccc(Cl)c2Cl)N1c1nc2ccc(OC(F)(F)F)cc2s1` (stereo not shown) [Compound 30, 3-(6-Trifluoromethoxy-benzo[d]thiazol-2-yl)-2-(2,3-dichlorophenyl) thiazolidin-4-one]: the inhibition at 4 µM amounted to 46% and the half-maximal inhibitory concentration (IC50) is over 4 µM.
As for `O=C1CSC(c2ccc([N+](=O)[O-])cc2)N1c1nc2ccc(OC(F)(F)F)cc2s1` (stereo not shown) [Compound 31, 3-(6-Trifluoromethoxy-benzo[d]thiazol-2-yl)-2-(4-nitrophenyl)thiazolidin-4-one], the inhibition at 4 µM came to 46% and the IC50 is over 4 µM.
`O=C1CSC(c2ccc(Cl)cc2)N1c1nc2ccc(OC(F)(F)F)cc2s1` (stereo not shown) [Compound 32, 3-(6-Trifluoromethoxy-benzo[d]thiazol-2-yl)-2-(4-chlorophenyl)thiazolidin-4-one] gave an inhibition at 4 µM of 46% and an IC50 of over 4 µM.
